Source: US20260097022A1, “COMPOUNDS AND USES THEREOF” (Integrated Biosciences, Inc., priority 2023, published 2026)

Tests used:
HepG2 cells = experiment: Cytotoxicity against HepG2 cells (resazurin); assay type: cell-based, human; details: 3 days treatment, curve-fitting, two biological replicates
Experimental: Measuring cytotoxicity against HepG2 and HEK293 cells. Cytotoxicity in human embryonic kidney (HEK293) and liver carcinoma (HepG2) cells was assayed as above using a resazurin assay. Cells were obtained from ATCC (ATCC CRL-1573 and HB-8065), passaged <10 times, and grown in Dulbecco's modification of Eagle's Medium (DMEM: Corning 10^−013-CV) supplemented with 10% FBS and 1% penicillin-streptomycin. 99 μL of cells were plated into each well of a 96-well clear flat-bottom, black polystyrene tissue-culture-treated plate at a density of ˜10+ cells/well, and plates were incubated overnight for adhesion. The day after plating. 1 μL of each compound, prepared as two-fold serial dilutions of 5 mM stock solutions in DMSO, was added to each well. Cells were incubated for 3 days, after which resazurin was added to each well to a final concentration of 0.15 mM. After an additional 1 day of incubation, the fluorescence excitation/emission at 550/590 nm was read using a SpectraMax M3 plate reader. Experiments were performed in biological duplicate. IC50 values were determined by normalizing with respect to the fluorescence intensity values of untreated control cells on day 3, as described in Calculation of cellular viability values in dose-response curves above.

[1] = tested on: etoposide-treated IMR-90 cells; experiment: Etoposide-induced senescence model, resazurin cell viability (screen and dose-response); assay type: cell-based, human; details: for effect on Sncs and control cells versus DMSO: concentrations between 1.5 to 3 μM, 3 days
Procedure, shortened: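 IMR-90 fibroblasts made senescent with 50 μM etoposide for 2 days, then 4 days recovery before plating. Compounds at 10 μM or 1 μM final (screen) or three-fold dilutions (1% DMSO) for 3 days, then 0.15 mM resazurin 1 day, fluorescence 550/590 nm. Viability expressed as fraction of untreated controls; biological duplicates.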

[2] = tested on: Salmonella typhimurium TA100; experiment: Genotoxicity assay (Ames 384-ISO test); assay type: cell-based; details: 100 μM
Experimental: Genotoxicity assay. An Ames 384-ISO test (6041-1S) from Environmental Bio-Detection Products, Inc, was used following the manufacturer's instructions. Briefly. Salmonella typhimurium TA100 was grown overnight (16-18 h) at 37° C., with shaking at 300 rpm and treated with the provided exposure media and compound samples at the final concentrations indicated. Treatment with the provided 4-nitroquinoline 1-oxide (4NQO), a mutagen, was used as a positive control. Cells were then added to the provided reversion solution, and each sample was split into 48 wells of 384-well plates. Plates were incubated at 37° C., for 2 days, after which the number of revertant (yellow-colored) wells corresponding to each sample was counted. […] An overnight bacterial culture was diluted 1:10.000 in LB medium (Becton Dickinson 244620) and plated using 99 μL working volumes into the wells of a clear flat-bottom 96-well plate. One μL of two-fold dilutions of each test compound in DMSO, starting from a final concentration of 500 μM, was added across wells, and plates were sealed and incubated overnight at 37° C., to determine bacterial growth.

human red blood cells = experiment: Hemolysis assay; assay type: cell-based; details: up to a final concentration of 100 μM; 1 h at 37° C.
Experimental: Hemolysis assay. Whole human blood containing EDTA (Innovative Resarch IWB1K2E) was centrifuged at 120×g at 4° C., for 5 min and resuspended in Dulbecco's PBS (DPBS: VWR 02-0119-0500). These washing steps were repeated until the supernatant was clear. Red blood cells were then resuspended in DPBS to 5×10^8 cells/mL, and 100 μL of cells was plated into each well of a 96-well clear round-bottom plate. Compounds were added to the indicated concentrations, and DMSO was used as a vehicle. Samples were incubated for 1 h at 37° C., without shaking, after which plates were centrifuged at 1500×g at room temperature for 5 min to pellet cells. 60 μL of the supernatant from each sample was then transferred to a 96-well clear flat-bottom plate, and the absorbance was read at 405 nm using a SpectraMax M3 plate reader to quantify the amount of soluble hemoglobin. Fractional hemolysis was determined by linearly interpolating absorbance values with respect to a positive control (saturation with 10% Triton X-100) and a negative control (1% DMSO vehicle). Results are depicted in FIG. 14.

[3] = ratio of IC50 values for vehicle- and etoposide-treated IMR-90 cells, 3 days treatment

Row | SMILES | IC50 (HepG2 cells) [µM] | effect on Sncs and control cells versus DMSO [1] | Therapeutic Index (TI) [1, 3] | reversion of bacterial cultures (mutagenic potential) [2] | hemolysis (human red blood cells) | IC50 (HepG2 cells; Homo sapiens, HepG2, 72 h) [µM] | Therapeutic Index (TI) ([1]; etoposide-induced senescence model, ratio of IC50 values between etoposide- and DMSO-treated IMR-90 fibroblasts)
1 | O=C(Nc1ccc(S(=O)(=O)Nc2ncccn2)cc1)c1ccc(-c2ccccc2)cc1 [BRD-K20733377] | 70.3 | selective elimination of Sncs and no difference in the viabilities of control cells | 8.3 | did not induce significant reversion | did not induce significant hemolysis |  | 
2 | Cc1ccccc1C(=O)Nc1ccc2nc(SCC(=O)Nc3ccccc3)sc2c1 [compound 19] |  | selective elimination of Sncs and no difference in the viabilities of control cells | 4.7 | did not induce significant reversion | did not induce significant hemolysis | 383 | +++ (compounds with a TI of >5 were labeled as +++)
3 | COc1ccc(C(=O)Nc2ccc3nc(SCC(=O)Nc4ccccc4F)sc3c2)cc1OC [compound 6] |  | selective elimination of Sncs and no difference in the viabilities of control cells |  | did not induce significant reversion | did not induce significant hemolysis | 421 | 
